≈ marks a conversion by molar mass, not a printed value.
Columns and labels:
[1] = Aqueous solubility, shake-flask method, phosphate buffer pH 7.4; format: physicochemical; settings: thermodynamic from solid, phosphate buffer pH 7.4, shake-flask, mean ± SD of three experiments
Experimental: The aqueous solubility of tetrazole derivatives was determined by the shaking flask methodology in phosphate buffer at pH 7.4, microfiltration, and quantification of the saturated solutions via UV spectroscopy. […] The introduction of polar groups on the 3-indole position was favorable since the most soluble compounds were the oximes 16–19 (38–53 µg/mL), followed by the carbaldehyde series 12–15 (33–45 µg/mL), and the carbonitrile derivatives (25–40 µg/mL), whereas the unsubstituted indoles 8–11 were the least soluble series (19–35 µg/mL).
The aqueous solubility of the compounds was determined using the saturation shake-flask method. First, calibration lines at the maximum wavelength of absorbance were determined for each compound. Then, 5 mg of each compound was suspended in 500 µL of pH 7.4 buffer, and the resulting mixture was shaken for 72 h at room temperature and filtrated over a […] filter to remove the insoluble fraction. The concentration of the compound in the supernatant (saturated solution) was determined by measuring UV absorbance at the maximum wavelength of absorbance and interpolation in the calibration line. A Helios Alfa Spectrophotometer was used for the UV measurements. The aqueous solubility values are given as the average of three independent experiments.

[2] = system: HeLa (cervix epithelioid carcinoma); experiment: Cell growth inhibition, MTT assay, HeLa; format: cell-based; settings: Homo sapiens
Experimental: (§1) The ability of the synthesized compounds to inhibit the cell proliferation of human cancer cell lines was assayed by measuring cell viability through the use of the MTT method 72 h after treatment. For this purpose, representative cell lines of the most frequent kinds of cancer were selected, including the following: HeLa (cervix epithelioid carcinoma), MCF7 (breast adenocarcinoma), U87 MG (glioblastoma), T98G (temozolomide resistant glioblastoma), HepG2 (hepatocellular carcinoma), HCT8 (colorectal carcinoma), and HT-29 (colon adenocarcinoma).
(§2) The cell lines were obtained from ATTC (Manassas, VA, USA). […] The cells were periodically tested for Mycoplasma infection by using a MycoAlert kit (Lonza, Norwest, Australia), and only Mycoplasma-free cells were used in the experiments.
(§3) Then, every compound was added (10 µL/well) to a final concentration of 10 µM. Untreated cells were used as negative controls. The antiproliferative activity of compounds was measured 72 h after drug exposure through the MTT assay. […] For this purpose, compounds were used at different concentrations, ranging from 10^−10 to 10^−2 M. Measurements were performed in triplicate, and each experiment was repeated three times. The IC50 values were determined using Origin software (version 9.6, OriginLab, Washington, DC, USA).

[3] = system: MCF7 (breast adenocarcinoma); experiment: Cell growth inhibition, MTT assay, MCF7; format: cell-based; settings: Homo sapiens
Experimental: as §1, §2, §3

U87 MG (glioblastoma) = experiment: Cell growth inhibition, MTT assay, U87 MG; format: cell-based; settings: Homo sapiens, U-87 MG
Experimental: as §1, §2, §3

[4] = system: T98G (temozolomide resistant glioblastoma); experiment: Cell growth inhibition, MTT assay, T98G; format: cell-based; settings: Homo sapiens
Experimental: as §1, §2, §3

[5] = system: HepG2 (hepatocellular carcinoma); experiment: Cell growth inhibition, MTT assay, HepG2; format: cell-based; settings: Homo sapiens
Experimental: as §1, §2, §3

[6] = system: HCT8 (colorectal carcinoma); experiment: Cell growth inhibition, MTT assay, HCT8; format: cell-based; settings: Homo sapiens
Experimental: as §1, §2, §3

[7] = system: HT-29 (colon adenocarcinoma); experiment: Cell growth inhibition, MTT assay, HT-29, without or with verapamil; format: cell-based, human
Experimental: as §1
Multidrug resistance (MDR) proteins, especially P-glycoprotein (P-gp), are often involved in resistance mechanisms affecting tubulin-binding drugs that are frequently related to the failure of cancer therapies. […] These pumps are also part of the blood–brain barrier.
as §2, §3

[8] = system: HEK-293 (embryonic kidney); experiment: Cell growth inhibition, MTT assay, non-tumor HEK-293; format: cell-based; settings: Homo sapiens
Experimental: The ability of the synthesized compounds to inhibit the cell proliferation of human cancer cell lines was assayed by measuring cell viability through the use of the MTT method 72 h after treatment. For this purpose, representative cell lines of the most frequent kinds of cancer were selected, including the following: HeLa (cervix epithelioid carcinoma), MCF7 (breast adenocarcinoma), U87 MG (glioblastoma), T98G (temozolomide resistant glioblastoma), HepG2 (hepatocellular carcinoma), HCT8 (colorectal carcinoma), and HT-29 (colon adenocarcinoma). […] The compounds were also tested against the non-tumor HEK-293 cells to study their selectivity toward cancer cells. […] The cell lines were obtained from ATTC (Manassas, VA, USA). […] The cells were periodically tested for Mycoplasma infection by using a MycoAlert kit (Lonza, Norwest, Australia), and only Mycoplasma-free cells were used in the experiments. […] Louis, MO, USA), which was dissolved in PBS at 5 mg/mL in accordance with the manufacturer's instructions. […] Untreated cells were used as negative controls. The antiproliferative activity of compounds was measured 72 h after drug exposure through the MTT assay. […] For this purpose, compounds were used at different concentrations, ranging from 10^-10 to 10^-2 M. Measurements were performed in triplicate, and each experiment was repeated three times. The IC50 values were determined using Origin software (version 9.6, OriginLab, Washington, DC, USA).

[9] = target: T1, microtubular protein isolated from calf brains (bovine brain tubulin) (Bos taurus, UniProt P81947+Q6B856); experiment: Tubulin polymerization inhibition (TPI); format: biochemical; settings: in vitro tubulin polymerization, mean ± SD
T1 construct: from tissue; host or cells: calf (bovine) brain
T1 sequence (Q6B856 whole entry): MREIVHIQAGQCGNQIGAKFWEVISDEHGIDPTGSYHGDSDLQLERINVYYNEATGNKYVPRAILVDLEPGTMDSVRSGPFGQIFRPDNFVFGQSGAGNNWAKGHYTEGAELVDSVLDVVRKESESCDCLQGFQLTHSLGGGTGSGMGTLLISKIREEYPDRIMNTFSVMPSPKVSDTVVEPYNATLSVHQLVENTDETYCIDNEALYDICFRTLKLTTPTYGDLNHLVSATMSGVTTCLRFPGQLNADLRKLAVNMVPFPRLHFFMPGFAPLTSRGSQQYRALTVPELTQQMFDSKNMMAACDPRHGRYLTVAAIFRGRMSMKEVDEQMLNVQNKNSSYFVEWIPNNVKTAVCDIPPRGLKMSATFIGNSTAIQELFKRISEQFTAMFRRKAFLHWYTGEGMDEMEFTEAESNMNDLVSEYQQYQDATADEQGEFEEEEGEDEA
T1 sequence (P81947 whole entry): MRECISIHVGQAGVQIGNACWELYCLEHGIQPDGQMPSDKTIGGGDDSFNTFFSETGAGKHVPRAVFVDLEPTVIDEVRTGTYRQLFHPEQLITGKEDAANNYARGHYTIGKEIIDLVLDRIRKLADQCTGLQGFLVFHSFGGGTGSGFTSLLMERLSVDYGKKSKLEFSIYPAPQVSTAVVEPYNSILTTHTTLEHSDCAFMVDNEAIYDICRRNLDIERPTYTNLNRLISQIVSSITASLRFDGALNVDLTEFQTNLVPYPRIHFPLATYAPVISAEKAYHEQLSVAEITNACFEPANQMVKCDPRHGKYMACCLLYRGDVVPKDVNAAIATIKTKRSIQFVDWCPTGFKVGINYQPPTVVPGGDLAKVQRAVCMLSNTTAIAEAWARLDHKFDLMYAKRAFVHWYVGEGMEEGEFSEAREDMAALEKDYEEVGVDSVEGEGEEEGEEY
Experimental: We evaluated the capacity of the new synthesized compounds to inhibit the polymerization of microtubular protein isolated from calf brains. The assays were performed by taking absorbance measurements to quantify the amount of polymer mass formed in the presence (or absence; negative controls) of the compounds.
Bovine brain tubulin was isolated as previously described by following a modified version of the Shelanski method. The protein was stored at −80 °C, and its concentration was determined by employing the Bradford method before each use. […] Tubulin polymerization, caused when heating the samples, was accompanied by an increase in the absorbance (at 450 nm) of the sample that was monitored by using a Helios α spectrophotometer. […] Measurements were performed in triplicate in two independent experiments using microtubular proteins from different preparations.

[10] = HCT-8, 72 h after drug exposure
[11] = Homo sapiens, HT-29, 72 h after drug exposure
[12] = Homo sapiens, HT-29, mean ± SD, Table S1
[13] = mean ± SD, Table S1, in the presence of verapamil (10 µM)
[14] = HEK293, 72 h, non-tumorigenic cell line
[15] = HEK293, heading: IC50 HEK-293, mean ± SD, Table S1, non-tumorigenic cell line

SMILES | solubility at 72 h [1] [µg/mL] | IC50 ([2]; 72 h after drug exposure) [nM] | IC50 ([2]; mean ± SD, Table S1) [nM] | IC50 ([3]; 72 h after drug exposure) [nM] | IC50 ([3]; mean ± SD, Table S1) [nM] | IC50 (U87 MG (glioblastoma); 72 h after drug exposure) [nM] | IC50 (U87 MG (glioblastoma); mean ± SD, Table S1) [nM] | IC50 ([4]; 72 h, 72 h after drug exposure) [nM] | IC50 ([4]; mean ± SD, Table S1) [nM] | IC50 ([5]; 72 h after drug exposure) [nM] | IC50 ([5]; mean ± SD, Table S1) [nM] | IC50 [6, 10] [nM] | IC50 ([6]; HCT-8, mean ± SD, Table S1) [nM] | IC50 [7, 11] [nM] | IC50 [7, 12] [nM] | IC50 [7, 13] [nM] | IC50 [8, 14] [nM] | IC50 [8, 15] [nM] | IC50 [9] [nM] | further results
CSc1cc(-c2nnnn2-c2ccc3c(c2)c(C#N)cn3C)cc(SC)n1 [Compound 23, 5-(5-(2,6-bis(methylsulfanyl)pyridin-4-yl)-1H-tetrazol-1-yl)-1-methyl-1H-indole-3-carbonitrile] | 34.1 ± 0.3 (≈ 86.7 µM) | 841 | 841.1 ± 6.1 | 963 | 963.3 ± 7.1 | 831 | 831.2 ± 4.8 | 865 | 865.2 ± 7.2 | 877 | 877.2 ± 5.9 | 822 | 822.3 ± 6.7 | 929 | 929.1 ± 7.8 | 927.5 ± 7.4 | > 10000 | > 10000 | 7900 ± 200 | –
Cn1cc(C=NO)c2cc(-n3nnnc3-c3cc(Cl)nc(Cl)c3)ccc21 [Compound 16, 5-(5-(2,6-dichloropyridin-4-yl)-1H-tetrazol-1-yl)-1-methyl-1H-indole-3-carbaldehyde oxime] | 38.2 ± 0.4 (≈ 98.4 µM) | 207 | 207.1 ± 2 | 210 | 210.1 ± 1.9 | 131 | 131.3 ± 1.1 | 127 | 127.3 ± 0.9 | 220 | 220 ± 2.3 | 219 | 219.1 ± 1.5 | 211 | 211.1 ± 2 | – | 7010 | – | 3700 ± 200 | –
COc1ccc(/C=C\c2cc(OC)c(OC)c(OC)c2)cc1O [CA-4, combretastatin A4, reference compound] | 1.1 ± 0.1 (≈ 3.48 µM) | 2 | – | 1 | 1.4 ± 0.1 | 10 | 10.1 ± 0.1 | 17 | 17.1 ± 0.2 | 13 | 13.4 ± 0.2 | 220 | 220.4 ± 2 | 305 | 305.4 ± 2.5 | 327.5 ± 2.2 | 721 | – | – | –
COc1cc(-c2nnnn2-c2ccc3c(c2)c(C#N)cn3C)cc(Cl)n1 [Compound 21, 5-(5-(2-chloro-6-methoxypyridin-4-yl)-1H-tetrazol-1-yl)-1-methyl-1H-indole-3-carbonitrile] | 39.7 ± 0.4 (≈ 109 µM) | 722 | 722.1 ± 5 | 701 | 701.5 ± 5.2 | 634 | – | 689 | 689 ± 7.5 | 740 | 740.3 ± 6.4 | 705 | 705.4 ± 4.9 | 749 | 749.5 ± 5.1 | 756.2 ± 5.6 | > 10000 | > 10000 | 6900 ± 300 | –
Cn1nnc2c(C(N)=O)ncn2c1=O [TMZ, temozolomide, reference compound] | – | > 10000 | – | > 10000 | – | – | – | – | – | > 10000 | – | > 10000 | – | – | > 10 | – | > 10000 | > 10000 | – | IC50 ([2]; heading: IC50 HeLa, mean ± SD, Table S1): > 10000 nM; IC50 ([3]; heading: IC50 MCF7, mean ± SD, Table S1): > 10000 nM; IC50 (U87 MG (glioblastoma); 72 h, 72 h after drug exposure): > 100000 nM; IC50 ([5]; heading: IC50 HepG2, mean ± SD, Table S1): > 10000 nM; IC50 ([6]; HCT-8, heading: IC50 HCT8, mean ± SD, Table S1): > 10000 nM
COc1cc(-c2nnnn2-c2ccc3c(ccn3C)c2)cc(Cl)n1 [Compound 9, 5-(5-(2-chloro-6-methoxypyridin-4-yl)-1H-tetrazol-1-yl)-1-methyl-1H-indole] | 35.4 ± 0.2 (≈ 104 µM) | 72 | 72.5 ± 0.4 | 69 | 69.3 ± 0.5 | 48 | 48.1 ± 0.4 | 54 | 54.4 ± 0.5 | 70 | 70.5 ± 0.5 | 75 | 75.4 ± 0.6 | 81 | 81.1 ± 0.5 | 80.2 ± 0.6 | 5200 | – | 3100 ± 200 | –
Cn1ccc2cc(-n3nnnc3-c3cc(Cl)nc(Cl)c3)ccc21 [Compound 8, 5-(5-(2,6-dichloropyridin-4-yl)-1H-tetrazol-1-yl)-1-methyl-1H-indole] | 19.3 ± 0.1 (≈ 55.9 µM) | 45 | 45.1 ± 0.3 | 43 | 43.2 ± 0.4 | 32 | 32.4 ± 0.2 | 41 | – | 49 | 49.1 ± 0.5 | 49 | 49.4 ± 0.3 | – | 52.3 ± 0.4 | 52.4 ± 0.2 | 4720 | – | 2800 ± 100 | –
CSc1cc(-c2nnnn2-c2ccc3c(c2)c(C=NO)cn3C)cc(Cl)n1 [Compound 18, 5-(5-(2-chloro-6-(methylsulfanyl)pyridin-4-yl)-1H-tetrazol-1-yl)-1-methyl-1H-indole-3-carbaldehyde oxime] | 42.7 ± 0.5 (≈ 107 µM) | 131 | – | 123 | 123 ± 1.7 | 93 | 93.4 ± 1 | 102 | 102 ± 1.1 | 127 | – | 115 | 115 ± 1.3 | 152 | 152.3 ± 1.4 | 150 ± 1.6 | 6130 | – | 3300 ± 100 | –
COc1ccc(S(=O)(=O)Nc2cccnc2Nc2ccc(O)cc2)cc1 [ABT-751, reference compound] | 40 ± 0.3 (≈ 108 µM) | 388 | 388 ± 3.9 | 180 | 180 ± 2.8 | – | 375 ± 5.4 | – | – | – | 327.1 ± 1.1 | 209 | 209.1 ± 2 | 213 | 213.5 ± 2.1 | 250 ± 2.9 | – | – | – | –

From publication PMC10342533, “Novel Tetrazole Derivatives Targeting Tubulin Endowed with Antiproliferative Activity against Glioblastoma Cells” (International Journal of Molecular Sciences, 2023)
